Results taken from patent publication US20050080113A1, “Medicinal compositions” (priority 2001, published 2005).
pIC50: −log10 of the molar value. Each block holds one compound with its values, some of them ahead of it.

Tests used:
[1] = tested on: TNF-α production in THP-1 cells; assay: Measurement of inhibitory activity of TNF-α production (LPS-stimulated THP-1 cells, ELISA), Reference Example K 2; type: cell-based; conditions: Homo sapiens, Reference Example H compounds, LPS 5 μg/mL, 4 hours, read-out: IC50 (inhibition of TNF-α production)
Protocol: THP-1 cells cultured in a PRMI 1640 medium (Life Technologies, Inc., USA) containing 1% inactivated fetal bovine serum (Life Technologies, Inc.) and 10 mM HEPES (pH 7.5) were inoculated on a 96 well plate to give 1×10^5 cells/well, then, 1 μL of a sample compound dissolved in DMSO was added. After incubation for 1 hour at 37° C. in a CO2 incubator, LPS (Wako Pure Chemical Industries Ltd.) was added to give a final concentration of 5 μg/mL. After incubation for 4 hours at 37° C. in a CO2 incubator, the supernatant was obtained by centrifugal separation. The TNF-α concentration in the supernatant was measured by ELISA (R&D Systems, Quantikine Kit). The concentration (IC50 value) of a sample compound necessary for inhibiting 50% of TNF-α production was calculated by PRISM 2.01 (GraphPad Software).

human p38 MAP kinase = molecular target: T1, human p38 MAP kinase (Homo sapiens, UniProt Q16539); assay: Measurement of the p38 MAP kinase inhibitory activity, 32P uptake into Myelin Basic Protein (Reference Example F 2); type: biochemical; conditions: active form p38 MAP kinase, 30° C. 60 minutes, read-out: IC50 (p38 MAP kinase inhibitory activity, uptake of 32P into acid insoluble fraction)
T1 construct: made in house; host or cells: Sf-21 insect cells, baculovirus (BAC-HP38 co-infected with BAC-caMKK3)
Protocol: The genetic manipulations described below were according to the methods described in the book (Maniatis et al., Molecular Cloning, Cold Spring Harbor Laboratory, 1989) or a method described in the protocol attached to the reagent.
(1) Cloning of Human p38 MAP Kinase Gene and Preparation of Recombinant Baculovirus
Cloning of human p38 MAP kinase gene was performed by a PCR method using a primer set P38 U: 5′-[…]-3′ [SEQ ID NO:9] and PAG-L: 5′-[…]-3′ [SEQ ID NO:10] made by reference to the base sequence of p38 MAP kinase gene reported by Han et al. (Science 265 (5173), 808 811 (1994)) and employing kidney cDNA (Toyobo, QUICK-Clone cDNA) as a template.
A PCR reaction was performed by a Hot Start method using AmpliWax PCR Gem 100 (Takara Shuzo). As the lower mixed solution, 2 μL 10×LA PCR Buffer, 3 μL 2.5 mM dNTP solution, each 2.5 μL of 12.5 μM primer solution, and 10 μL sterile distilled water were mixed. As the upper mixed solution, 1 μL human cardiac cDNA (1 ng/mL) as a template, 3 μL 10×LA PCR Buffer, 1 μL 2.5 mM dNTP solution, 0.5 μL TaKaRa LA Taq DNA polymerase (Takara Shuzo), and 24.5 μL sterile distilled water were mixed. One AmpliWax PCR Gem 100 (Takara Shuzo) was added to the prepared lower mixed solution to treat at 70° C. for 5 minutes and for 5 minutes in an ice and, thereafter, the upper mixed solution was added to prepare a reaction solution for PCR. A tube containing the reaction solution was set at a thermal cycler (Perkin Elmer), which was treated at 95° C. for 2 minutes. Further, after repeating 35 times a cycle of 15 seconds at 95° C. and 2 minutes at 68° C., treatment was performed at 72° C. for 8 minutes. The resulting PCR product was subjected to agarose gel (1%) electrophoresis, 1.1 kb DNA fragment containing p38 MAP kinase gene was recovered from the gel and, thereafter, which was inserted into pT7Blue-T vector (Takara Shuzo) to make the plasmid pHP38.
The 4.8 kb XhoI-KpnI fragment of the plasmid pFASTBAC1 (CIBCOBRL) and the 1.1 kb XhoI-Kpn fragment of the above plasmid pHP38 were ligated to make the plasmid pFBHP38.
The plasmid pFBHP38 and BAC-TO-BAC Baculovirus Expression System (GIBCOBRL) were used to prepare the recombinant Baculovirus virusstock BAC-HP38.
(2) Cloning of Human MKK3 Gene and Preparation of Recombinant Baculovirus
Cloning of human MKK3 gene was performed by a PCR method using a primer set MKK-U: 5′-[…]-3′ [SEQ ID NO:11] and MKK-L: 5′-[…]-3′ [SEQ ID NO:12] made by reference to the base sequence of MKK3 gene reported by Derijard, B. et al., Science 267 (5198), 682 685 (1995) and using kidney cDNA (Toyobo, QUICK-Clone cDNA).
A PCR reaction was performed by a Hot Start method using AmpliWax PCR Gem 100 (Takara Shuzo). As the lower mixed solution, 2 μL 10×LA PCR Buffer, 3 μL 2.5 mM dNTP solution, each 2.5 μL of 12.5 μM primer solution, and 10 μL sterile distilled water were mixed. As the upper mixed solution, 1 μL human kidney cDNA (1 ng/mL), 3 μL 10×LA PCR Buffer, 1 μL 2.5 mM dNTP solution, 0.5 μL TaKaRa LA taq DNA polymerase (Takara Shuzo) and 24.5 μL sterile distilled water were mixed. One AmpliWax PCR Gem 100 (Takara Shuzo) was added to the prepared lower mixed solution to treat at 70° C. for 5 minutes and for 5 minutes in ice and, thereafter, the upper mixed solution was added to prepare a reaction solution for PCR. A tube containing the reaction solution was set at a thermal cycler (Perkin Elmer), which was treated at 95° C. for 2 minutes. Further, after repeating 35 times a cycle of 15 seconds at 95° C. and 2 minutes at 68° C., treatment was performed at 72° C. for 8 minutes. The resulting PCR product was subjected to agarose gel (1%) electrophoresis, 1.0 kb DNA fragment containing MKK3 gene was recovered from the gel and, thereafter, which was inserted into pT7Blue-T vector (Takara Shuzo) to make the plasmid pHMKK3. […]

CYP3A4 = CYP3A4 (Homo sapiens, UniProt P08684); assay: Measurement of CYP3A4 inhibitory activity (testosterone 6β-hydroxylation), Example 3; type: in vitro ADME; conditions: CYP3A4 enzyme preparation with control microsomes, pH 7.4, probe testosterone (100 μM; 6β-hydroxylation), CYP3A4, test substance 10 μM, 100 μM testosterone, 37° C. 30 min, read-out: inhibitory rate (%) at 10 μM
Protocol: 10 pmol/mL CYP3A4, 100 μM testosterone, 1/10 volume of the reaction mixture of NADPH generating system and test substance (10 μM) were added to a 50 mM phosphate buffer (pH 7.4) and control microsome was added to adjust the final concentration of protein to 1.0 mg/mL. The reaction mixture was prepared and reacted at 37° C. for 30 min. (amount of total reaction solution 100 μL). The reaction was quenched by the addition of 100 μL of acetonitrile. After stirring, 100 μL of distilled water was added and the mixture was further stirred. A supernatant obtained by centrifugation (15000 rpm) for 10 min. was injected to HPLC by 80 μL and concentration of 6 β-hydroxytestosterone produced by the reaction was measured.
For preparation of the NADPH generating system, 1 volume of 50 mM NADP (β-nicotinamide adenine dinucleotide oxidized type), 1 volume of 0.5 M glucose-6 phosphate, 5 volumes of 0.1 M magnesium chloride, 1 volume of 150 unit/mL glucose-6-phosphate […] and 2 volumes of distilled water were mixed.

CYP3A4, sequence (P08684 whole entry): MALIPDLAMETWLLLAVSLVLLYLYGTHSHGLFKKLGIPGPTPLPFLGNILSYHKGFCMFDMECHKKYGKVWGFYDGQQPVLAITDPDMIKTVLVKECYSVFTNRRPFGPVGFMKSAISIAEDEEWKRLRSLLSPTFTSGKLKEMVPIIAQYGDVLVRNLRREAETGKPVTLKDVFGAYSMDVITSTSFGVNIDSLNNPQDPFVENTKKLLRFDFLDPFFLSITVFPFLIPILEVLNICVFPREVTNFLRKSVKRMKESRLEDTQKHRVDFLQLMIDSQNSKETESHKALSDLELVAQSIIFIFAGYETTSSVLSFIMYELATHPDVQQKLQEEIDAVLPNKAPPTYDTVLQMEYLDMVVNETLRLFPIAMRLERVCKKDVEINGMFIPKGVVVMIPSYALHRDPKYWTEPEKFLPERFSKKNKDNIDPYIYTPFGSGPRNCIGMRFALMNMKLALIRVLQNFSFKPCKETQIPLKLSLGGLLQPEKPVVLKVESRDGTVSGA
T1 sequence (Q16539 whole entry): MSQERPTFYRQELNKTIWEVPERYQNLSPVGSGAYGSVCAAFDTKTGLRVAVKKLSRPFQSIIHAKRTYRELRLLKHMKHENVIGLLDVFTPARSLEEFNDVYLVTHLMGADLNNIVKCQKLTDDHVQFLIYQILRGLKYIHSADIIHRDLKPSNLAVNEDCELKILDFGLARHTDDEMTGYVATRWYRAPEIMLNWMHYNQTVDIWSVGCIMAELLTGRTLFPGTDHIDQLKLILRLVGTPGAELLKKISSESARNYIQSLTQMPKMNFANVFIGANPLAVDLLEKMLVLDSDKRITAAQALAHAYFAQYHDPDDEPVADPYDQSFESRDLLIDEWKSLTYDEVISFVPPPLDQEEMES

Compound: Cc1cc(C)cc(-c2nc(N)sc2-c2ccnc(OCc3ccccc3)c2)c1 [D 1, [4-(3,5-dimethylphenyl)-5-(2-phenylmethyloxy-4-pyridyl)-1,3-thiazol-2-yl]amine]
pIC50 (human p38 MAP kinase): 6.37

Compound: COc1ccc(-c2nc(NC(=O)c3ccccc3)sc2-c2ccnc(NC(=O)c3ccccc3)c2)cc1 [D 2, N-[4-[2-benzoylamino-4-(4-methoxyphenyl)-1,3-thiazol-5-yl]-2-pyridyl]benzamide]
pIC50 (human p38 MAP kinase): 7.20

Compound: Cc1cc(C)cc(-c2nc(N)sc2-c2ccnc(NC(=O)c3ccccc3)c2)c1 [D 5, N-[4-[2-amino-4-(3,5-dimethylphenyl)-1,3-thiazol-5-yl]-2-pyridyl]benzamide]
pIC50 (human p38 MAP kinase): 7.54

Compound: CCc1nc(-c2cccc(C)c2)c(-c2ccnc(F)c2)s1 [H 11, 2-ethyl-5-(2-fluoro-4-pyridyl)-4-(3-methylphenyl)-1,3-thiazole]
inhibition at 30 min, 10 μM (CYP3A4): < 30%

Compound: CCc1nc(-c2cccc(C)c2)c(-c2ccnc(C)c2)s1 [H 13, 2 ethyl-4 (3 methylphenyl)-5 (2 methyl-4 pyridyl)-1,3 thiazole]
inhibition at 30 min, 10 μM (CYP3A4): < 30%

Compound: CCc1nc(-c2cccc(C)c2)c(-c2ccnc(N)c2)s1 [H 22, 4-[2-ethyl-4-(3-methylphenyl)-1,3-thiazol-5-yl]-2-pyridylamine]
inhibition at 30 min, 10 μM (CYP3A4): < 30%

Compound: CCc1nc(-c2cccc(C)c2)c(-c2ccnc(Cl)c2)s1 [H 69, 5 (2 chloro-4 pyridyl)-2 ethyl-4 (3 methylphenyl)-1,3-thiazole]
inhibition at 30 min, 10 μM (CYP3A4): < 30%

Compound: CC(=O)Nc1nc(-c2cc(C)cc(C)c2)c(-c2ccncc2)s1 [Reference Example A 23-128, N-[4-(3,5-dimethylphenyl)-5-(4-pyridyl)-1,3-thiazol-2-yl]acetamide]
melting point: 284 to 286 °C

Compound: Cc1cc(C)cc(-c2nc(NC(=O)c3ccncc3)sc2-c2ccncc2)c1 [Reference Example A 23-200, N-[4-(3,5-dimethylphenyl)-5-(4-pyridyl)-1,3-thiazol-2-yl]isonicotinamide]
melting point: 302 to 304 °C

Now from value to compound:

pIC50 [1]: 7.09
Compound: Cc1cccc(-c2nc(N(C)C(=O)c3ccc(C)nc3)sc2-c2ccnc(NC3CCCC3)c2)c1 [46-4]

inhibition at 30 min, 10 μM (CYP3A4): < 30%
Compound: CCc1nc(-c2cccc(C)c2)c(-c2ccnc(NCCCc3ccccc3)c2)s1 [D 19-4, N-[4-[2-ethyl-4-(3-methylphenyl)-1,3-thiazol-5-yl]-2-pyridyl]-N-(3-phenylpropyl)amine]

inhibition at 30 min, 10 μM (CYP3A4): < 30%
Compound: CCc1nc(-c2cccc(C)c2)c(-c2ccnc(NC(C)=O)c2)s1 [H 29-2, N-[4-[2-ethyl-4-(3-methylphenyl)-1,3-thiazol-5-yl]-2-pyridyl]acetamide]

melting point: 128 to 129 °C
Compound: CCc1nc(-c2cccc(OC)c2)c(-c2ccnc(NC(=O)Cc3ccccc3)c2)s1 [L 68-10, N-[4 [2 ethyl-4 (3-methoxyphenyl)-1,3 thiazol-5 yl]-2 pyridyl)phenylacetamide]

melting point: 116 to 117 °C
Compound: CCc1nc(-c2cccs2)c(-c2ccnc(NC(=O)c3ccccc3)c2)s1 [L 70-4, N-[4 [2 ethyl-4 (2-thienyl)-1,3 thiazol-5 yl]-2 pyridyl]benzamide]
